Starred links: 1 amine or outer side, 2 acyl side, 3 side chain; linkers in the order of their positions; H or OH if unused. Positions of bridges follow the written chain, without caps; N, C: chain ends. Non-standard residues stand in square brackets, D forms with d. Residues, ends and D or L forms follow the SMILES beside them. X43 = O=C(CC[S+]([O-])Cc1cc(F)cc(CSCCN[*:1])c1)[*:2]; Nle(6-ylidene) = O=C([C@H](CCCC=[*:3])N[*:1])[*:2]; X18 = O=C([C@@H](Cc1cccc(OCC=[*:3])c1)N[*:1])[*:2]; X25 = O=C([C@H](Cc1cccc(OCC=[*:3])c1)N[*:1])[*:2]; Trp(5-F) = N[C@@H](Cc1c[nH]c2ccc(F)cc12)C(=O)O; X42 = CN([C@@H](CCC=[*:3])C(=O)[*:2])[*:1]; X16 = O=C([C@H](CCCCCC=[*:3])N[*:1])[*:2]; X12 = O=C([C@H](CCCCC=[*:3])N[*:1])[*:2]; X13 = O=C(CCCCc1cccc(CCCCN[*:1])c1)[*:2]; X4 = O=C(CCSCc1cccc(CSCCN[*:1])c1)[*:2]; Hag = O=C([C@H](CCC=[*:3])N[*:1])[*:2]; mXylylene = c1cc(C[*:1])cc(C[*:2])c1; AllylGly = C=CC[C@H](N)C(=O)O; αMeP = C[C@@]1(C(=O)O)CCCN1
Key:
PCSK9 = PCSK9 (Homo sapiens (Human), UniProt Q8NBP7); assay: PCSK9 Alexa FRET Standard assay (displacement of AlexaFluor647 tagged cyclic peptide Reagent A); format: binding; settings: PCSK9 Alexa FRET Standard assay, 0.5 nM PCSK9, 20 nM AF cyclic peptide Reagent A; read-out: IC50
PCSK9, sequence (Q8NBP7 153-692): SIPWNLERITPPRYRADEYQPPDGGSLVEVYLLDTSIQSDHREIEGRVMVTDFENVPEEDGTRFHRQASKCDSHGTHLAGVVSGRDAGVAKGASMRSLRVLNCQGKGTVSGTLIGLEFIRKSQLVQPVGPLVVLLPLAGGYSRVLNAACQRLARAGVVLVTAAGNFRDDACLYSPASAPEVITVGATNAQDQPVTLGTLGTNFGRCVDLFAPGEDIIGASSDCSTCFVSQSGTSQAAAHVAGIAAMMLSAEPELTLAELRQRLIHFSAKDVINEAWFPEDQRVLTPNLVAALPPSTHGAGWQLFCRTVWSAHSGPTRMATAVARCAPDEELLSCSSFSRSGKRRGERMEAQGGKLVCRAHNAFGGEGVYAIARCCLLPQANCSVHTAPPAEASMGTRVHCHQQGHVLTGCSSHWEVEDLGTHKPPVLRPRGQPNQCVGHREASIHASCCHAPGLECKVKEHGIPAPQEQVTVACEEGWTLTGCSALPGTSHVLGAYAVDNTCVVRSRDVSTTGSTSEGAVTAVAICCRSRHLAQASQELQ
In short: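 TR-FRET displacement: 0.5 nM biotinylated PCSK9 with 1.25 nM Strep-Eu and 20 nM AlexaFluor-tagged cyclic peptide (final) in 50 mM HEPES pH 7.4, 0.15 M NaCl, 5 mM CaCl2, 0.01% BSA, 0.01% P20, ≥2 h at room temperature. IC50 from sigmoidal fit, converted to Ki via peptide KD; falling Eu counts flagged false positives.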

[1] = target: human PCSK9 / human LDLR EGFa domain interaction (Homo sapiens (Human), UniProt Q8NBP7); assay: TR-FRET assay of inhibition of the PCSK9-LDLR protein-protein interaction; format: binding; settings: TR-FRET, 20 nM human PCSK9, 20 nM human LDLR EGFa domain, 2 hours room temperature; read-out: IC50
human PCSK9 / human LDLR EGFa domain interaction, sequence (Q8NBP7 153-692): as above
human PCSK9 / human LDLR EGFa domain interaction, sequence (Q8NBP7 31-152 partner): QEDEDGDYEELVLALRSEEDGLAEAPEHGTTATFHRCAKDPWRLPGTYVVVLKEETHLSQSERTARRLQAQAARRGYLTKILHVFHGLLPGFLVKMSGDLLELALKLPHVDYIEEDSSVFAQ
In short: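 Avitag-biotinylated human PCSK9 (20 nM) and his-tagged human LDLR EGFa domain (20 nM) were incubated with 5 nM Ulight streptavidin and 5 nM europium anti-6×His for 2 h at room temperature. Buffer: 50 mM HEPES, 150 mM NaCl, 5 mM CaCl2, 0.01% BSA, 0.01% P20. IC50 from 4-parameter fit of dose-response.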

Row | IC50 (PCSK9) [nM] | IC50 [1] [nM] | Compound
1 | 1000 to 12100 | 1000 to 12100 | COc1ccc(C[C@@H]2NC(=O)[C@@H]3CC/C=C/CC[C@H](NC(=O)[C@H](Cc4c[nH]c5ccc(F)cc45)NC(=O)[C@H](Cc4c[nH]c5ccc(F)cc45)NC(=O)[C@@H](C)NC(=O)[C@H](CCCCN)NC(=O)CCSCc4cccc(c4)CSCCNC(=O)[C@]4(C)CCCN4C2=O)C(=O)N3)cc1 [Compound 493]
2 | 1000 to 12100 | 1000 to 12100 | COc1ccc(C[C@@H]2NC(=O)[C@@H]3CCC/C=C\CO[C@H]4C[C@@H](C(=O)N3)N(C4)C(=O)[C@H](Cc3c[nH]c4ccc(F)cc34)NC(=O)[C@H](Cc3c[nH]c4ccc(F)cc34)NC(=O)[C@@H](C)NC(=O)[C@H](CCCCN)NC(=O)CCSCc3cccc(c3)CSC[C@@H](C(N)=O)NC(=O)[C@]3(C)CCCN3C2=O)cc1 [Compound 500]
3 | 0.11 to 100 | 100 to 1000 | COc1ccc(C[C@@H]2NC(=O)[C@@H]3CC/C=C\CO[C@H]4C[C@@H](C(=O)N3)N(C4)C(=O)[C@H](Cc3c[nH]c4ccc(F)cc34)NC(=O)[C@H](Cc3c[nH]c4ccc(F)cc34)NC(=O)[C@@H](C)NC(=O)[C@H](CCCCN)NC(=O)CCSCc3cccc(c3)CSC[C@@H](C(N)=O)NC(=O)[C@]3(C)CCCN3C2=O)cc1 [Compound 509]

Continued, molecule first:

Row | Compound | IC50 (PCSK9) [nM] | IC50 [1] [nM]
4 | COc1ccc(C[C@@H]2NC(=O)[C@H]([C@@H](C)O)NC(=O)[C@@H]3CCC/C=C/COc4cccc(c4)C[C@H](NC(=O)[C@@H](C)NC(=O)[C@H](CCCCN)NC(=O)CCSCc4cccc(c4)CSCCNC(=O)[C@]4(C)CCCN4C2=O)C(=O)N[C@@H](Cc2c[nH]c4ccc(F)cc24)C(=O)N3)cc1 [Compound 494] (cyclo(K[dA][X25][Trp(5-F)][Nle(6-ylidene)]TY(Me)[αMeP][X4]); staple (E) 3-5) | 1000 to 12100 | 1000 to 12100
5 | COc1ccc(C[C@@H]2NC(=O)[C@H]([C@@H](C)O)NC(=O)[C@@H]3CCCC/C=C\CCCC[C@H](NC(=O)[C@@H](C)NC(=O)[C@H](C)NC(=O)CCSCc4cccc(c4)CSCCNC(=O)[C@]4(C)CCCN4C2=O)C(=O)N[C@@H](Cc2c[nH]c4ccc(F)cc24)C(=O)N3)cc1 [Compound 495] (cyclo(A[dA][X12][Trp(5-F)][X12]TY(Me)[αMeP][X4]); staple (Z) 3-5) | 0.11 to 100 | 100 to 1000
6 | COc1ccc(C[C@@H]2NC(=O)[C@H]([C@@H](C)O)NC(=O)[C@@H]3CCCCC/C=C/CC[C@H](NC(=O)[C@@H](C)NC(=O)[C@H](C)NC(=O)CCSCc4cccc(c4)CSCCNC(=O)[C@]4(C)CCCN4C2=O)C(=O)N[C@@H](Cc2c[nH]c4ccc(F)cc24)C(=O)N3)cc1 [Compound 496] (cyclo(A[dA][Hag][Trp(5-F)][X16]TY(Me)[αMeP][X4]); staple (E) 3-5) | 100 to 1000 | 100 to 1000
7 | COc1ccc(C[C@@H]2NC(=O)[C@H]([C@@H](C)O)NC(=O)[C@@H]3CSCc4cccc(c4)CSC[C@H](NC(=O)[C@@H](C)NC(=O)[C@H](C)NC(=O)CCCCc4cccc(c4)CCCCNC(=O)[C@@H]4CCCN4C2=O)C(=O)N[C@@H](Cc2c[nH]c4ccc(F)cc24)C(=O)N3)cc1 [Compound 497] (cyclo(A[dA]C[Trp(5-F)]CTY(Me)P[X13]); linker 3-5 via mXylylene) | 100 to 1000 | 100 to 1000
8 | C[C@@H]1NC(=O)CCSCc2cccc(c2)CSCCNC(=O)[C@]2(C)CCCN2C(=O)[C@H](Cc2ccc(O)cc2)NC(=O)[C@H](C)NC(=O)[C@@H]2C/C=C\COc3cccc(c3)C[C@@H](NC(=O)[C@@H](C)NC1=O)C(=O)N[C@@H](Cc1c[nH]c3ccc(F)cc13)C(=O)N2 [Compound 498] (cyclo(AY[αMeP][X4]A[dA][X18][Trp(5-F)][AllylGly]); staple (Z) 7-9) | 1000 to 12100 | 1000 to 12100
9 | COc1ccc(C[C@@H]2NC(=O)[C@@H]3CCCCCCO[C@H]4C[C@@H](C(=O)N3)N(C4)C(=O)[C@H](Cc3c[nH]c4ccc(F)cc34)NC(=O)[C@H](Cc3c[nH]c4ccc(F)cc34)NC(=O)[C@@H](C)NC(=O)[C@H](CCCCN)NC(=O)CCSCc3cccc(c3)CSC[C@@H](C(N)=O)NC(=O)[C@]3(C)CCCN3C2=O)cc1 [Compound 506] | 100 to 1000 | 100 to 1000
10 | COc1ccc(C[C@@H]2NC(=O)[C@H]([C@@H](C)OC)NC(=O)[C@@H]3CC/C=C/COc4cccc(c4)C[C@H](NC(=O)[C@@H](C)NC(=O)[C@H](C)NC(=O)CC[S+]([O-])Cc4cc(F)cc(c4)CSCCNC(=O)[C@]4(C)CCCN4C2=O)C(=O)N[C@@H](Cc2c[nH]c4ccc(F)cc24)C(=O)N3C)cc1 (some centres unmarked) [Compound 507] (cyclo(A[dA][X25][Trp(5-F)][X42]T(Me)Y(Me)[αMeP][X43]); staple (E) 3-5) | 0.11 to 100 | 0.1 to 100
